Data: US20250127168A1, “METHOD FOR PATHOGENS, MICROORGANISMS, AND PARASITES INACTIVATION” (New York Blood Center, Inc., priority 2018, published 2025)

Columns and labels:
Cytochrome C = Cytochrome C (Equus caballus, UniProt P00004); assay: Reactivity with Cytochrome C (electrospray MS); type: biochemical; details: 8 μM protein; 0.1, 1, 10 mM compound; pH 7.0, 40° C.; 1, 4 and 30 h
Source text: Using alkylating molecules to inactivate pathogens in blood product has potentially harmful side effect—their reaction with proteins may create neoantigens, i.e., they may become haptens. To assess the hapten potential of the compounds of Structure I, their ability to modify Cytochrome C was studied. Cytochrome C (MW of 12384 Da) was selected as a model protein because it contains a number of amino acids with nucleophilic side chains: 19 Lys, 2 Cys, 3 Asp, 9 Glu, 3 His, and 4 Tyr, which are potential targets for alkylation by the compounds of Structure I. Cytochrome C, 0.1 mg/mL (8 μM) solution in phosphate buffered saline was incubated with 0 (control), 0.1, 1, and 10 mM of compounds VI or X at pH 7.0 for 30 h at 40° C. Aliquots of the incubation mixtures were analyzed at 1, 4 and 30 h by electrospray mass spectrometry in the positive ionization mode with direct infusion into a LCQ Advantage mass spectrometer (Thermo-Finnigan, San Jose, CA) for the formation of covalent adducts of the protein with the test compounds.

[1] = tested on: Bovine viral diarrhea virus (BVDV); assay: Viral inactivation in RS, endpoint dilution assay; type: cell-based; details: 100 μM, RT
Protocol: The porcine parvovirus (PPV) was inactivated by using compound VI and compound X. Treatments were conducted in RS (pH 6.9) at RT with 100 μM using compound VI and compound X and 10% virus spike. Residual compounds were quenched by incubation with 10 mM Na2S2O3 for 2 hours at RT. Virus titers, expressed as Log10TCID50/mL, were determined using the standard endpoint dilution assay with permissive to PPV porcine testis cells. After the incubation of indicator cells for 6 days, infected wells were counted under microscope by visual inspection. To confirm the results, secondary infection using conditioned media from the first plate wells as samples was conducted.
Bovine viral diarrhea virus (BVDV) was inactivated by using compound VI and compound X. The protocol used for […] except the indicator cells, which were bovine turbinate cells.

[2] = tested on: Human respiratory syncytial virus (RSV); assay: Viral inactivation, modified plaque assay; type: cell-based; details: 100 μM, RT
Protocol: Human respiratory syncytial virus (RSV) was inactivated by using Compound VI or Compound X. For that purpose, sucrose gradient-purified virus was treated with 100 μM of Compound VI and Compound X at RT. […] The virus titers were determined using standard 10× serial dilutions in a modified plaque assay. For mock-treated virus no significant changes in RSV infectivity were found even after 6 h incubation at RT (in different experiments, the reduction of titers were in the range of 0.11-0.36 Login PFU/mL).
Inactivation of RSV with different concentrations of Compound XVI at RT and 40° C. was performed as described in Example 9.

[3] = Neutralization and covalent sequestration of compound VI by nucleophile-functionalized solid phase agents (LCMS); type: physicochemical
Protocol: Sulfonylchloride functionalized divinylbenzene crosslinked polystyrene resin (Sigma-Aldrich Cat. no. 498211-5g) was mixed with 5 ml 2M sodium hydrogen sulfide solution (prepared by saturation of sodium sulfide nonahydrate solution in water with hydrogen sulfide) under argon. The mixture was sonicated for ca. 3 min and then stirred at 55° C. for 4 h. After that the resin was filtered and washed three times with deaerated water, there times with deaerated methanol, and two times with deaerated ether. The resin was dried under stream of argon and then under vacuum. Obtained, 1.039 g dry resin (compound XXVIII), thiosulfonate functionalized polystyrene/divinylbenzene resin. An aliquot of compound XXVIII was added to a solution of compound VI, 100 μM in PBS.
Aminoethyl groups functionalized methacrylate resin (Purolite Ltd, Llantrisant, Wales, UK, Product No. D6195, trade name Chromalite MAM2, 0.5 mmol amino groups per ml wet resin, 68% moisture), 300 mg, was dried by three evaporation from 2 ml dry N,N-dimethylformamide under vacuum at 35° C. […] The load of mercapto groups on the product, compound XXX, was determined using the Elman's procedure (Riener, C. K.; Kada, G.; Gruber, H. J., Anal. Bioanal. Chem., 2002, 373, 266-76) and was 0.21 mmol per gram of wet resin. […]
Tentagel S NH2 resin, 200 mg (Rapp Polymere GmbH, Tuebingen, Germany, product No. S30132, divinylbenzene cross-linked polystyrene resin grafted with amino group terminated polyethylene glycol) was swollen for couple of hours in 5 ml dry N,N-dimethylformamide and then the excess of solvent was pipetted off Benzotriazol-1-yl-oxytripyrrolidinophosphonium hexafluorophosphate, 151 mg, 2-(4-(triphenylmethylthio)phenyl)acetic acid, 119 mg, and anhydrous 1-hydroxybenzotriazole, 44 mg, were dissolved in 1.2 mL dry N,N-dimethylformamide. […] The mercapto groups load was determined using the Elman's procedure and was 0.12 mmol per gram of dry resin. […]

[4] = row 1 h, footnote c: time points were 2, 4, and 6 h (2 h)
[5] = row 3 h, footnote c: time points were 2, 4, and 6 h (4 h)

Sequence of Cytochrome C (P00004 whole entry): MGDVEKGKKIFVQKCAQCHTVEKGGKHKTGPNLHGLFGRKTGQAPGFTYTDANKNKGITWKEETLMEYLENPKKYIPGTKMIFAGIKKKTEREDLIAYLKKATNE

Structure (SMILES)	covalent adducts with cytochrome C (Cytochrome C)	BVDV titer ([1]; incubation 1 h) [Log10TCID50/mL]	BVDV titer ([1]; incubation 3 h) [Log10TCID50/mL]	BVDV titer ([1]; incubation 6 h)	RSV titer ([2]; incubation 6 h)	RSV titer [2, 4] [Log10PFU/mL]	RSV titer [2, 5] [Log10PFU/mL]	concentration of compound VI in the mixture ([3]; 100 μM in PBS with mercaptophenyl TentaGel S resin XXXII)	concentration of compound VI in the mixture ([3]; 100 μM in PBS with mercaptophenyl methacrylate resin XXX)	concentration of compound VI in the mixture ([3]; 100 μM in PBS with thiosulfonate functionalized resin XXVIII)
CN(CCCCN(C)CCCN1CC1)CCCN(C)CCCN1CC1 [Compound X]	absence of covalent adducts	3.88	2.94	0.84 Log10TCID50/mL	1.95 Log10PFU/mL	4.95	3.48			
CN(CCCCN(C)CCCN1CC1)CCCN1CC1 [Compound VI, N^1,N^4-bis(3-(aziridin-1-yl)propyl)-N^1,N^4-dimethylbutane-1,4-diamine]	absence of covalent adducts	3.27	1.30	below the limit of detection and BLD	below the limit of detection and BLD	4.52	1.89	time dependent decreasing	time dependent decreasing	time dependent decreasing
